Assay results as given in US12576047B2, “Telomerase activating compounds for use in fertility and related applications” (Neuromagen Pharma Ltd, priority 2017, dated 2026).

Tests used:
[1] = tested on: LH; experiment: LH expression by RT-PCR in pituitary gland cells; format: cell-based, mouse; details: 50 nM, vs untreated
Method: (§1) FIGS. 29A, 29B, 29C and 29D: The embodied compounds affect the expression of gonadotropin hormones in pituitary gland cells. Cells (L T2) derived from the mouse pituitary gland were assessed for their secretion of LH and FSH at 6 (FIGS. 29A and 29B) and 12 hours (FIGS. 29C and 29D) following treatment with the indicated embodied compounds (50 nM). FSH and LH expression was determined by RT-PCR, and quantified from 5 different experiments, as assessed for significance, using the t test, one way ANOVA.

[2] = tested on: mouse ovary; experiment: Hematoxylin-eosin histology of mouse ovary; format: in vivo; details: for ovary histology: 6 mg/Kg single dose at Di-estrus stage; for ovary histology / ovary histology (follicles, granulosa cells): 12 hours; for ovary histology (follicles, granulosa cells): 6 mg/Kg single dose at met-estrus stage; for ovary histology (corpus luteum): 6 mg/Kg single dose at pro-estrus and estrus stages, 12 hrs
Source text: The ovaries were weighted; one was taken for protein extraction for measuring telomerase activity by TRAP assay, and the other one for the histological examination using hematoxylin-eosin staining of the ovary and its follicles.
The mice ovaries were removed and fixed with 4% paraformaldehyde overnight, dehydrated in increasing ethanol concentrations to xylene, and embedded in paraffin. A rotary microtome was used to produce 5 μm sections, which were mounted on Superfrost plus slides. The sections were dried and heated at 37° C. overnight and stored in dry place. Paraffin-embedded sections were deparaffinized in xylene and rehydrated in decreasing concentrations of ethanol. Then the sections stained with hematoxylin-eosin or subjected to immunochemical and Immunofluorescent assays [Liani-Leibson, K., I. Har-Vardi, and E. Priel, Inhibition of topoisomerase I by anti-cancer drug altered the endometrial cyclicity and receptivity. Curr Mol Med, 2014. 14(1): p. 141-50].

[3] = tested on: CREM; experiment: CREM expression in X-ray irradiated testis; format: in vivo, mouse; details: X-ray 2.5 Gy then injection, 12 hrs
Method: (§2) Toward this end, ICR mice (3 months old) were injected with 6 mg/kg of Compound 79, Compound 68 or Compound 70, or mice were subjected to X-ray radiation (2.5 Gy) followed by immediately injection of the respective compounds. Control mice were untreated or vehicle treated with or without exposure to X-ray radiation. The testes were removed 12 hrs after treatments and subjected to protein extracts or total RNA preparations for the examination of telomerase activity by TRAP assay, telomerase expression by Western blot and real time PCR. Testes were also taken for immunohistochemical and immunofluorescence analysis with various spermatogenesis markers. Epididymis was also taken for sperm count.

[4] = tested on: sperm; experiment: Sperm head morphology after X-ray radiation; format: in vivo, mouse; details: X-ray 2.5 Gy, single S.C. injection 6 mg/kg, 12 hours
Method: Three-month old mice were irradiated with X-ray (2.5 Gy) and treated with a single S.C. injection of 6 mg/kg of compound 68 or 70. Mice were sacrificed 12 hours later and sperm were removed from the epididymis and stained with eosin. The number of morphologically defective sperm (head morphology) were quantified and presented as a percentage value of the total sperm count (N=6 mice per group) (FIG. 26A). FIG. 26B provides a light micrograph showing healthy and defective sperm head morphology observed. The arrows labeled 1 and 2 point to defective sperm head morphology, and the arrows labeled 3 and 4 point to healthy sperm head morphology

[5] = tested on: FSH; experiment: FSH expression by RT-PCR in pituitary gland cells; format: cell-based, mouse; details: 50 nM
Method: as §1

[6] = tested on: ICR mice; experiment: Sperm count from the epididymis, with or without X-ray radiation; format: in vivo, mouse
Method: as §2, with “The testes were removed 12 hrs after treatments and subjected to protein extracts or total RNA preparations for the examination of telomerase activity by TRAP assay, telomerase expression by Western blot and real time PCR.” left out

[7] = tested on: mouse testes; experiment: H&E histology of testes after X-ray radiation; format: in vivo; details: X-ray 2.5 Gy then injection, 12 hrs
Method: as §2

[8] = tested on: female mice; experiment: Progesterone levels in mouse serum; format: in vivo; details: compared to DMSO or UT, 12 hrs post treatment, P, E, and M stages
Method: Blood samples were taken from the sacrificed mouse and following centrifugation (3800 rpm, 10 min) the serum was sent to the clinical endocrinology laboratory (Soroka University Medical Center, Beer-Sheva, Israel) for determination of progesterone levels.

[9] = tested on: Steroidogenic acute regulatory protein (StAr); experiment: StAr relative mRNA levels by qRT-PCR in granulosa cells; format: cell-based, rat; details: 50 nM for 6 hours
Method: (§3) Immortalized rat granulosa cells expressing FSH receptor were treated with either pregnant mare serum gonadotropin (PMSG), or the indicated compounds, or both for 6 hours. Protein extracts prepared from these cells served for telomerase activity measurement using a telomere repeat amplification protocol (TRAP) assay.
(§4) Briefly, protein extract incubated with oligonucleotide, which serves as a template for telomerase (TS), for 45 minutes at 30° C. followed by PCR with reverse primer (ACX) and internal control. PCR products were separated on 4.5% agarose gel. RNA extracts were used for cDNA synthesis and quantitative real time PCR with specific primers to Telomerase reverse transcriptase (TERT), Steroidogenic acute regulatory protein (StAr) and β-actin as a reference gene. To measure progesterone levels secreted by the cells, granulosa cells were cultured with or without 1 IU/mL PMSG and DMSO, Compound 79 50 nM or compound 70 50 nM in the presence of 100 nM dexamethasone. After 24 hours progesterone levels cell-culture medium were determined by radioimmunoassay (RIA). For cell proliferation measurement, 1×10^5 cells were seeded in a 96 wells plate with 1 IU/mL PMSG and DMSO, Compound 79 50 nM or Compound 70 50 nM. After 24 hours cells viability was measured by XTT proliferation assay.

[10] = tested on: Telomerase reverse transcriptase (TERT); experiment: TERT relative mRNA levels by qRT-PCR in granulosa cells; format: cell-based, rat; details: 50 nM and 200 nM for 6 hours
Method: as §3, §4

[11] = target: T1, telomerase (Rattus norvegicus, UniProt Q673L6); experiment: TRAP assay of telomerase activity in granulosa cells; format: cell-based; details: 50 nM and 200 nM for 6 hours
T1 construct: Protein extracts prepared from these cells served for telomerase activity measurement; endogenous in cells; host or cells: immortalized rat granulosa cells expressing FSH receptor
Method: as §3, §4

T1 sequence (Q673L6 whole entry): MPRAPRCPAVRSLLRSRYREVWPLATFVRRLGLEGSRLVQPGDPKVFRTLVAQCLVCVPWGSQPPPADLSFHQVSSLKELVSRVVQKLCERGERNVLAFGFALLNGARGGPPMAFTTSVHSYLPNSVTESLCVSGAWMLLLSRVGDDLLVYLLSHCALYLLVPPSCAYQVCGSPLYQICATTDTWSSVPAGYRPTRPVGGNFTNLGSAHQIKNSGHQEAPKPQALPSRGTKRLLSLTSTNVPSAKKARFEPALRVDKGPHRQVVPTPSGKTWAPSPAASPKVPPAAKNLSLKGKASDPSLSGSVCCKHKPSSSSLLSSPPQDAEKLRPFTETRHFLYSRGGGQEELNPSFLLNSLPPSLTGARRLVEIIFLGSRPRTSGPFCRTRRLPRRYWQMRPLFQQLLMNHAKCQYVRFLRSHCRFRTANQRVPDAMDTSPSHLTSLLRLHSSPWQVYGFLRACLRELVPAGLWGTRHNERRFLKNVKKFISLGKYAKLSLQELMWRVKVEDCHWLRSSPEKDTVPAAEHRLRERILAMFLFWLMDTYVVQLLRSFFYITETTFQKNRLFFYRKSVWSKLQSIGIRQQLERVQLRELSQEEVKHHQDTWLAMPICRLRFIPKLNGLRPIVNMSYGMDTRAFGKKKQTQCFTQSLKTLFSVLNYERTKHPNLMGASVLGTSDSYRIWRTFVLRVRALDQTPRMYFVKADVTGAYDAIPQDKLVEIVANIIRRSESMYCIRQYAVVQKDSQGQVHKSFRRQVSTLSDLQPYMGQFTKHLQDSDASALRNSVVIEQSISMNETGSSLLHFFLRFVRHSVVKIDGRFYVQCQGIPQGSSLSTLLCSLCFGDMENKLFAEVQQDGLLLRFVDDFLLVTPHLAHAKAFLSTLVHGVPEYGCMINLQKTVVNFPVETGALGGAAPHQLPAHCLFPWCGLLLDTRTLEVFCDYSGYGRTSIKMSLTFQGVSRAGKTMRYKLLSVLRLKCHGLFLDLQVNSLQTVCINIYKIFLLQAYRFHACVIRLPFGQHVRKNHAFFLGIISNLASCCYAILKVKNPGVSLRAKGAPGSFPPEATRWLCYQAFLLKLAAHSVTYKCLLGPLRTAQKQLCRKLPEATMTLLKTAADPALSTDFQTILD

Structure (SMILES)	LH expression ([1]; 12 hours)	ovary histology [2]	ovary histology (follicles, granulosa cells) [2]	ovary histology (corpus luteum) [2]	CREM expression in testis [3]	number of defective sperm cells (head morphology) [4]	FSH expression ([5]; 6 hours, vs untreated)	sperm count ([6]; irradiated mice, 9 and 30 days post irradiation)	sperm cells number from the epididymis ([6]; non-irradiated mice, 12 hrs post treatment, compared to DMSO)	morphology of testicular tissue (H&E) [7]	LH expression ([1]; 6 hours post treatment)	increase in the secretion of progesterone [8]	expression of StAr [9]	TERT relative mRNA levels [10]	telomerase activity (TRAP) [11]	FSH expression ([5]; 12 hours)
CC(c1cc(Br)c(O)c(Br)c1)(c1cc(Br)c(O)c(Br)c1)c1cc(Br)c(O)c(Br)c1 [Compound 68]	increased LH production above untreated levels	a plurality of corpus luteum (CL)	more developed follicles (white arrow) and plurality of layers of granulosa cells (GC) around the oocytes	more corpus luteum (CL) than in the control group	restored the expression of the spermatogenesis markers	reduction in the number of defective sperm cells	decreased FSH expression relative to untreated samples	increased sperm count at 9 and 30 days post irradiation	a significant increase	protected the spermatogonia cells layer from the damaging effects of X-ray and the morphology of the testicular tissue remained intact						
CCOCc1cc(C(C)(c2cc(COCC)c(O)c(COCC)c2)c2cc(COCC)c(O)c(COCC)c2)cc(COCC)c1O [Compound 79]		multiple layers of granulosa cells (GC) around the oocytes	more developed follicles (white arrow) and plurality of layers of granulosa cells (GC) around the oocytes	more corpus luteum (CL) than in the control group							increased expression of LH above untreated levels	up to 5 folds	increased expression of StAr	increased expression in a dose-dependent fashion	increased expression in a dose-dependent fashion	decreased FSH levels
